Results as given in patent publication US8648066B2 (Exelixis, Inc., priority 2009, dated 2014).

What follows are molecules tested against mTOR/GbL/Raptor (mTORC1) (Homo sapiens, UniProt P42345) (assay: mTOR/GbL/Raptor (mTORC1) ELISA assay). Settings: phosphorylation of 4E-BP1; 0.2 nM mTORC1, 10 μM ATP; read-out: IC50 in this assay (mTORC1 ELISA).
Type: biochemical
How it was run: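 ELISA read-out: phospho-4E-BP1 captured on Ni-chelate plates and detected with anti-phospho antibody plus HRP-anti-IgG luminescence. The kinase step ran 120 min at ambient temperature with 0.2 nM human mTORC1, 10 µM ATP, 50 nM His-4E-BP1, 10 mM MnCl2, pH 7.2 HEPES.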

Row | SMILES | IC50
1 | CC1(C)CCc2ncnc(N3CCOc4ccc(-c5cnc(N)c(S(=O)(=O)N6CC(O)(CO)C6)c5)cc4C3)c2C1 [Example 314, 1-({2-amino-5-[4-(6,6-dimethyl-5,6,7,8-tetrahydroquinazolin-4-yl)-2,3,4,5-tetrahydro-1,4-benbzoxazepin-7-yl]pyridin-3-yl}sulfonyl)-3-(hydroxymethyl)azetidin-3-ol] | 10 to 50 nM
2 | CC1(C)CCc2ncnc(N3CCOc4ccc(-c5cnc(N)c(S(=O)(=O)N6CC(O)C6)c5)cc4C3)c2C1 [Example 315, 1-({2-amino-5-[4-(6,6-dimethyl-5,6,7,8-tetrahydroquinazolin-4-yl)-2,3,4,5-tetrahydro-1,4-benzoxazepin-7-yl]pyridin-3-yl}sulfonyl)azetidin-3-ol] | 10 to 50 nM
3 | CC1(C)CCc2ncnc(N3CCOc4ccc(-c5cnc(N)c(S(=O)(=O)N6CCCC(O)C6)c5)cc4C3)c2C1 (stereo not drawn) [Example 316] | 10 to 50 nM
4 | CC1(C)CCc2ncnc(N3CCOc4ccc(-c5cnc(N)c(S(=O)(=O)N6CCC(O)CC6)c5)cc4C3)c2C1 [Example 317, 1-({2-amino-5-[4-(6,6-dimethyl-5,6,7,8-tetrahydroquinazolin-4-yl)-2,3,4,5-tetrahydro-1,4-benzoxazepin-7-yl]pyridin-3-yl}sulfonyl)piperidin-4-ol] | 50 to 250 nM
5 | CC1(C)CCc2ncnc(N3CCOc4ccc(-c5cnc(N)c(S(=O)(=O)N6CCC(O)C6)c5)cc4C3)c2C1 (stereo not drawn) [Example 318] | 10 to 50 nM
6 | Cc1nc(CN(C)C)nc(N2CCOc3ccc(-c4ccc5[nH]c(CF)nc5c4)cc3C2)c1Cc1ccc(F)cc1 [Example 321] | ≤ 10 nM
7 | Cc1nc(CN(C)C)nc(N2CCOc3ccc(-c4ccc5[nH]c(C(F)F)nc5c4)cc3C2)c1C(C)C [Example 331, 1-[4-{7-[2-(difluoromethyl)-1H-benzimidazol-5-yl]-2,3-dihydro-1,4-benzoxazepin-4(5H)-yl}-6-methyl-5-(1-methylethyl)pyrimidin-2-yl]-N,N-dimethylmethanamine] | 50 to 250 nM
8 | COc1ccc2c(N3CCOc4ccc(-c5ccc(OC)c(OC)c5)cc4C3)nc(CN(C)C)nc2c1 [Example 333, 1-[4-{7-[3,4-bis(methyloxy)phenyl]-2,3-dihydro-1,4-benzoxazepin-4(5H)-yl}-7-(methyloxy)quinazolin-2-yl]-N,N-dimethylmethanamine] | ≥ 2000 nM
9 | Cc1nc2ncc(-c3ccc4c(c3)CN(c3ncnc5c3CCC(C(C)O)C5)CCO4)cc2[nH]1 (stereo not drawn) [Example 340, 1-{4-[7-(2-methyl-1H-imidazo[4,5-b]pyridin-6-yl)-2,3-dihydro-1,4-benzoxazepin-4(5H)-yl]-5,6,7,8-tetrahydroquinazolin-7-yl}ethanol] | 50 to 250 nM
10 | CCc1nc(CN(C)C)nc(N2CCOc3ccc(-c4cnc5[nH]c(C)nc5c4)cc3C2)c1C [Example 344, 1-{4-ethyl-5-methyl-6-[7-(2-methyl-3H-imidazo[4,5-b]pyridin-6-yl)-2,3-dihydro-1,4-benzoazepin-4(5H)-yl]pyrimnidin-2-yl}-N,N-dimethylmethanamine] | 250 to 1000 nM
11 | Cc1nc2ncc(-c3ccc4c(c3)CN(c3nc(CN(C)C)nc(C)c3CC3CC3)CCO4)cc2[nH]1 [Example 346, 1-{5-(cyclopropylmethyl)-4-methyl-6-[7-(2-methyl-1H-imidazo[4,5-b]pyridin-6-yl)-2,3-dihydro-1,4-benzoxazepin-4(5H)-yl]pyrimidin-2-yl}-N,N-dimethylmethanamine] | 50 to 250 nM
12 | Cc1nc2cc(-c3ccc4c(c3)CN(c3nc(CN(C)C)nc(C)c3Cc3ccc(F)cc3)CCO4)ccc2[nH]1 [Example 347, 1-{5-[(4-fluorophenyl)methyl]-4-methyl-6-[7-(2-methyl-1H-benzimidazol-5-yl)-2,3-dihydro-1,4-benzoxazepin-4(5H)-yl]pyrimidin-2-yl}-N,N-dimethylmethanamine] | ≤ 10 nM

Further lines, results first:

Row | IC50 | SMILES
13 | ≤ 10 nM | CC(=O)OCc1nc2c(c(N3CCOc4ccc(-c5cnc6nc(C)[nH]c6c5)cc4C3)n1)CC(C)(C)CC2 [Example 313, {6,6-dimethyl-4-[7-(2-methyl-1H-imidazo[4,5-b]pyridin-6-yl)-2,3-dihydro-1,4-benzoxazepin-4(5H)-yl]-5,6,7,8-tetrahydroquinazolin-2-yl}methyl acetate]
14 | 10 to 50 nM | CN(C)Cc1nc2c(c(N3CCOc4ccc(-c5ccc6[nH]c(C(F)F)nc6c5)cc4C3)n1)CC(C)(C)CC2 [Example 320]
15 | 10 to 50 nM | CN(C)Cc1nc2c(c(N3CCOc4ccc(-c5ccc6[nH]c(CF)nc6c5)cc4C3)n1)CC(C)(C)CC2 [Example 322]
16 | 250 to 1000 nM | COc1ccc(-c2ccc3c(c2)CN(c2nc(CN(C)C)nc4c2CC(C)(C)CC4)CCO3)cc1OC [Example 323, 1-(4-{7-[3,4-bis(methyloxy)phenyl]-2,3-dihydro-1,4-benzoxazepin-4(5H)-yl}-6,6-dimethyl-5,6,7,8-tetrahydroquinazolin-2-yl)-N,N-dimethylmethanamine]
17 | 250 to 1000 nM | COc1ccc(-c2ccc3c(c2)CN(c2nc(CN(C)C)nc4c2CC(C)(C)CC4)CCO3)cc1Cl [Example 324, 1-(4-{7-[3-chloro-4-(methyloxy)phenyl]-2,3-dihydro-1,4-benzoxazepin-4(5H)-yl}-6,6-dimethyl-5,6,7,8-tetrahydroquinazolin-2-yl)-N,N-dimethylmethanamine]
18 | ≤ 10 nM | CN(C)Cc1nc2c(c(N3CCOc4ccc(-c5ccc(-c6ncc[nH]6)cc5)cc4C3)n1)CC(C)(C)CC2 [Example 325]
19 | 250 to 1000 nM | COCCOc1ccc(-c2ccc3c(c2)CN(c2nc(CN(C)C)nc4c2CC(C)(C)CC4)CCO3)cc1OC [Example 327, 1-(6,6-dimethyl-4-{7-[3-(methyloxy)-4-{[2-(methyloxy)ethyl]oxy}phenyl]-2,3-dihydro-1,4-benzoxazepin-4(5H)-yl}-5,6,7,8-tetrahydroquinazolin-2-yl)-N,N-dimethylmethanamine]
20 | 250 to 1000 nM | COc1ccc(-c2ccc3c(c2)CN(c2nc(CN(C)C)nc4c2CC(C)(C)CC4)CCO3)cn1 [Example 330, 1-(6,6-dimethyl-4-{7-[6-(methyloxy)pyridin-3-yl]-2,3-dihydro-1,4-benzoxazepin-4(5H)-yl}-5,6,7,8-tetrahydroquinazolin-2-yl)-N,N-dimethylmethanamine]
21 | 50 to 250 nM | Cc1nc(CN(C)C)nc(N2CCOc3ccc(-c4ccc5[nH]c(CF)nc5c4)cc3C2)c1C(C)C [Example 332, 1-[4-{7-[2-(fluoromethyl)-1H-benzimidazol-5-yl]-2,3-dihydro-1,4-benzoxazepin-4(5H)-yl}-6-methyl-5-(1-methylethyl)pyrimidin-2-yl]-N,N-dimethylmethanamine]
22 | 10 to 50 nM | CC[C@H]1CCc2c(nc(CN(C)C)nc2N2CCOc3ccc(-c4cnc5nc(C)[nH]c5c4)cc3C2)C1 [Example 334, 1-{(7S)-7-ethyl-4-[7-(2-methyl-1H-imidazo[4,5-b]pyridin-6-yl)-2,3-dihydro-1,4-benzoxazepin-4(5H)-yl]-5,6,7,8-tetrahydroquinazolin-2-yl}-N,N-dimethylmethanamine]
23 | 50 to 250 nM | Cc1nc(CN(C)C)nc(N2CCOc3ccc(-c4ccc5scnc5c4)cc3C2)c1Cc1ccc(F)cc1 [Example 336, 1-{4-[7-(1,3-benzothiazol-5-yl)-2,3-dihydro-1,4-benzoxazepin-4(5H)-yl]-5-[(4-fluorophenyl)methyl]-6-methylpyrimidin-2-yl}-N,N-dimethylmethanamine]
24 | 250 to 1000 nM | CN(C)Cc1nc2c(c(N3CCOc4ccc(-c5ccc6scnc6c5)cc4C3)n1)CC(C)(C)CC2 [Example 337, 1-{4-[7-(1,3-benzothiazol-5-yl)-2,3-dihydro-1,4-benzoxazepin-4(5H)-yl]-6,6-dimethyl-5,6,7,8-tetrahydroquinazolin-2-yl}-N,N-dimethylmethanamine]
25 | ≥ 2000 nM | COC1Cc2nc(CN(C)C)nc(N3CCOc4ccc(-c5ccc6scnc6c5)cc4C3)c2CC1(C)C (stereo not drawn) [Example 338, 1-{4-[7-(1,3-benzothiazol-5-yl)-2,3-dihydro-1,4-benzoxazepin-4(5H)-yl]-6,6-dimethyl-7-(methyloxy)-5,6,7,8-tetrahydroquinazolin-2-yl}-N,N-dimethylmethanamine]
26 | ≤ 10 nM | CN(C)Cc1nc2c(c(N3CCOc4ccc(-c5cnc6nc(C7CC7)[nH]c6c5)cc4C3)n1)CC(C)(C)CC2 [Example 339, 1-{4-[7-(2-cyclopropyl-1H-imidazo[4,5-b]pyridin-6-yl)-2,3-dihydro-1,4-benzoxazepin-4(5H)-yl]-6,6-dimethyl-5,6,7,8-tetrahydroquinazolin-2-yl}-N,N-dimethylmethanamine]
27 | 250 to 1000 nM | Cc1nc2c(F)c(-c3ccc4c(c3)CN(c3nc(CN(C)C)nc5c3CC(C)(C)CC5)CCO4)ccc2[nH]1 [Example 341, 1-{4-[7-(4-fluoro-2-methyl-1H-benzimidazol-5-yl)-2,3-dihydro-1,4-benzoxazepin-4(5H)-yl]-6,6-dimethyl-5,6,7,8-tetrahydroquinazolin-2-yl}-N,N-dimethylmethanamine]
28 | 250 to 1000 nM | Cc1nc2cc(-c3ccc4c(c3)CN(c3nc(CN(C)C)nc5c3CC(C)(C)CC5)CCO4)c(F)cc2[nH]1 [Example 342, 1-{4-[7-(6-fluoro-2-methyl-1H-benzimidazol-5-yl)-2,3-dihydro-1,4-benzoxazepin-4(5H)-yl]-6,6-dimethyl-5,6,7,8-tetrahydroquinazolin-2-yl}-N,N-dimethylmethanamine]
29 | 1000 to 2000 nM | CCc1nc(CN(C)C)nc(N2CCOc3ccc(-c4ccc5[nH]c(C)nc5c4)cc3C2)c1C [Example 343, 1-{4-ethyl-5-methyl-6-[7-(2-methyl-1H-benzimidazol-5-yl)-2,3-dihydro-1,4-benzoxazepin-4(5H)-yl]pyrimidin-2-yl}-N,N-dimethylmethanamine]
30 | 250 to 1000 nM | Cc1nc2ccc(-c3ccc4c(c3)CN(c3nc(CN(C)C)nc(C)c3CC3CC3)CCO4)cc2[nH]1 [Example 345, 1-{5-(cyclopropylmethyl)-4-methyl-6-[7-(2-methyl-1H-benzimidazo-6-yl)-2,3-dihydro-1,4-benzoxazepin-4(5H)-yl]pyrimidin-2-yl}-N,N-dimethylmethanamine]
